Laboratory results from patent publication US7388105B2, “Compounds and use to reduce the formation of malodour” (Givaudan S.A., priority 2005, dated 2008).
Like-named read-outs stand apart in the source and are kept apart here.

Target: alpha-N-acyl-glutamine-aminoacylase (Corynebacterium striatum, UniProt Q8GGD4)
Assay: Competitive substrates of alpha-N-acyl-glutamine-aminoacylase: reduction of acid release
Assay type: biochemical
Details: for inhibition at 50 µM: tested compound 0.05 mM; for inhibition at 50 µM / inhibition at 100 µM / inhibition at 200 µM / inhibition at 400 µM: 15 min; for inhibition at 100 µM: tested compound 0.1 mM; for inhibition at 200 µM: tested compound 0.2 mM; for inhibition at 400 µM: tested compound 0.4 mM
Method: In a sample, the enzyme alpha-N-acyl-glutamine-aminoacylase was used at a concentration of 36 ng/ml in Buffer A (50 mM NaCl; 50 mM NaH2PO4/K2HPO4; pH 7). To each sample, alpha-N-decanoyl-glutamine or alpha-N-(E)-3-methyl-2-hexenoyl-glutamine was added at a final concentration of 0.2 mM as a substrate.
Further, to each sample various competitive substrates are added as shown in Table 1 below at different concentrations as indicated.
The resulting samples with enzyme, substrate and competitive substrate were incubated for 15 minutes, acidified to pH 2 with HCl and extracted with methyl tert butyl ether (MTBE). […] The percentage of the reduction of the release when compared to the positive control is given in Table 1 (equals inhibition of the enzmye).

[1] = substrate alpha-N-decanoyl-glutamine 0.2 mM, release of decanoic acid vs positive control, read-out: % Inhibition (DA)
[2] = substrate alpha-N-(E)-3-methyl-2-hexenoyl-glutamine 0.2 mM, release of (E)-3-methyl-2-hexenoic acid vs positive control, read-out: % Inhibition (MH)

Chain of alpha-N-acyl-glutamine-aminoacylase (Q8GGD4 whole entry): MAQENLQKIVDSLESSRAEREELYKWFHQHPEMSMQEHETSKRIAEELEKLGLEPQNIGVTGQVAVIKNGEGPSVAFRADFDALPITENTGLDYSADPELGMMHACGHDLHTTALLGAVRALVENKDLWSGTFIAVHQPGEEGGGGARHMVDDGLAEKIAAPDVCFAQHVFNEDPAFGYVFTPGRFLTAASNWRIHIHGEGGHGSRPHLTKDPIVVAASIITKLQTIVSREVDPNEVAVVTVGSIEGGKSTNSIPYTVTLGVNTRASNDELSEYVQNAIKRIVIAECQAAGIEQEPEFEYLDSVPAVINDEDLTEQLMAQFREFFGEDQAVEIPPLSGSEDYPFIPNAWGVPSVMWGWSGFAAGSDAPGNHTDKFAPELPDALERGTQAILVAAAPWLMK

| SMILES | inhibition at 50 µM [1] [%] | inhibition at 100 µM [2] [%] | inhibition at 100 µM [1] [%] | inhibition at 200 µM [2] [%] | inhibition at 200 µM [1] [%] | inhibition at 400 µM [2] [%] | Inhibition of Nα-acyl-glutamine-aminoacylase (in words) (summary of Table 1) |
| --- | --- | --- | --- | --- | --- | --- | --- |
| CCCCOC(=O)N[C@@H](CCC(N)=O)C(=O)O [Compound 5, alpha-N-Butyloxycarbonyl-L-glutamine] | 6.7 | 1.1 | 6.8 | 0 | 10.4 | 0 |  |
| CC1CCC(C(C)C)C(OC(=O)NC(CCC(N)=O)C(=O)O)C1 [Compound 3, alpha-N-(2-isopropyl-5-methylcyclohexanyloxycarbonyl)-L-glutamine] |  | 7.4 | 19.3 | 16.5 | 27.2 | 33.9 |  |
| C=CCCCCCCCCC(=O)NC(CCC(N)=O)C(=O)O [Compound 2, alpha-N-(10-undecenoyl)-L-glutamine] | 0.9 | 0 | 2.2 | 2.1 | 15.6 | 24.2 |  |
| CC(C)=CCCC(C)CCOC(=O)NC(CCC(N)=O)C(=O)O [Compound 4, alpha-N-(3,7-dimethyl-oct-6-enyloxycarbonyl)-L-glutamine] | 15.9 | -0.3 | 13.8 | 17.1 | 34.6 | 16.1 |  |
| CC(C)(C)C1CCC(OC(=O)N[C@@H](CCC(N)=O)C(=O)O)CC1 (stereo partly drawn) [Compound 6, alpha-N-(4-tert-Butylcyclohexyloxycarbonyl)-L-glutamine] | 11.3 | 4.9 | 14.3 | 14.8 | 21.2 | 28.5 |  |
| CC(CCOC(=O)NC(CCC(N)=O)C(=O)O)CCc1ccccc1 [Compound 1, alpha-N-(3-Methyl-5-phenylpentanyloxycarbonyl)-L-glutamine] | 38.3 | 35.5 | 57 | 58.1 | 64.4 | 78.3 | particularly good inhibitor |
